# Test results from patent US9532519B2, “Plant growth regulator and use thereof” (Japan Science and Technology Agency, priority 2006, dated 2017).
# Key:
# [1] = tested on: Rose (breed; Patiohit alicante); test: Influence of oxidized glutathione on growth of rose (Patiohit alicante); type: in vivo; settings: 50 mL of 0.5 mM-GSSG two times a week for four months, then pruned
# Procedure: Rose (breed; Patiohit alicante) was fertilized with 50 mL of 0.5 mM-GSSG solution two times a week for four months and then pruned completely and cultivated.
# Arabidopsis [2] = settings: in vivo
# eustoma = test: Effect on promoting growth of roots of eustoma; type: in vivo; settings: MS culture medium containing 1 mM-GSSG or GSH, grown 1 month, transferred to planter
# Text: In the planter, 2 parts of vermiculite, 1 part of The Kureha Ikubyou Baido soil, and 1 part of vermiculite were layered as a lower layer, a middle layer, and an upper layer, respectively, and the above plants were transferred thereto.
# Arabidopsis [3] = test: Effect of concentration of oxidized glutathione on growth of Arabidopsis; type: in vivo
# Procedure: Specifically, soil filled in a pod of approximately 65 in width, 65 in depth, and 50 in height was immersed in 0 mM-, 0.01 mM-, 0.2 mM-, 1 mM-, 2 mM-, and 5 mM-GSSG solutions. Seeds of Arabidopsis were sown in such a manner that approximately three seeds existed in each pod, and the seeds were observed chronologically 3 weeks after the sowing.
# [4] = tested on: strawberry (breed; Eminent garden series, Yokubari-ichigo kurenai (SUMIKA)); test: Effect of oxidized glutathione on growth of strawberry (number of runners); type: in vivo; settings: 50 mL of 0.5 mM-GSSG two times a week; four months after the fertilization; Cont zone two or three runners
# [5] = tested on: transformants of Arabidopsis to which the gFBA gene was introduced and wild-type Arabidopsis (Columbia; Col); test: Influence 3 of oxidized glutathione on gFBA transformant Arabidopsis (GSSG only, 0 mM to 5 mM); type: in vivo; settings: only GSSG as liquid fertilizer
# Text: This tendency was more clearly observed in the transformants of Arabidopsis to which the gFBA gene was introduced.
# Sweet corn [6] = test: Effect 4 of oxidized glutathione on productivity of corn (method and time of treatment); type: in vivo; settings: 20 mL of 0.2 mM-GSSG each time, to roots or sprayed to stem and leaves; any of the treatment times
# Procedure: Sweet corn was cultivated under the same conditions as those of <15.
# Harvest index of the plant thus obtained was measured.
# [7] = tested on: transformants of Arabidopsis to which a gene encoding gFBA was introduced and wild-type Arabidopsis (Columbia; Col); settings: in vivo
# [8] = tested on: Rose saplings (breed; Purple rose); test: Effect 1 on promoting growth of sprout and floral bud of rose (Purple rose); type: in vivo; settings: 50 mL of 0.5 mM-GSSG two times a week; one month from the fertilization
# Procedure: Rose saplings (breed; Purple rose) were purchased at a hardware store and cultivated in pods for rice hydroponics. The rose saplings were fertilized with 50 mL of a 0.5 mM-GSSG solution in the form of a liquid fertilizer two times a week.
# [9] = tested on: Soybean (breed: Tsurumusume) and soybean (breed; Toyomusume); test: Influence of oxidized glutathione on growth and yield of seeds of soybean, agricultural field; type: in vivo; settings: 0.5 mM-GSSG, 50 mL per individual two times a week at base of stem; each breed
# Procedure: The soybean was fertilized with a nitrogen fertilizer that was KUMIAI RIN […] S604 in a ratio of 20 kgN per 10 are, and was additionally fertilized with 5 kgN 3 weeks later.
# Further, in a GSSG-treated management zone, a 0.5 mM-GSSG solution was given to the base of a stem (see the arrow in FIG. 21) in the amount of 50 mL per one individual two times a week in such a manner that the solution flowed along the stem.
# In a case where it was likely to rain, the GSSG solution was supplied to the plant after the rain. Similarly, in a case of watering, the GSSG solution was supplied to the plant after the watering. When the harvest time of the plant of the control (i.e. normal nitrogen management zone) was coming, supply of the GSSG solution to the plant in the GSSG-treated management zone was stopped.
# The seed weight, the amount of biomass, and the harvest index of the plant thus obtained in the GSSG-treated management zone, each relative to that of the plant in the normal nitrogen management zone, were measured.
# [10] = tested on: Rose saplings (breed; JJ scarlet and JJ apricot); test: Effect 2 on promoting growth of sprout and floral bud of rose (JJ scarlet and JJ apricot); type: in vivo; settings: 50 mL of 0.5 mM-GSSG two times a week; fourth and eighth day from the fertilization
# Procedure: Rose saplings (breed; JJ scarlet and JJ apricot) were purchased at a hardware store and cultivated in pods for rice hydroponics. The rose saplings were fertilized with 50 mL of a 0.5 mM-GSSG solution in the form of a liquid fertilizer two times a week.
# In (a)-(d) of FIG. 35, the breeds of three plants are JJ scarlet, JJ apricot, and JJ scarlet, respectively from the left.
# Sweet corn [11] = test: Effect of oxidized glutathione on productivity of corn under nitrogen-deficient condition; type: in vivo; settings: nitrogen-deficient then 30 kgN/10a; 0.2, 0.5, 1.0 mM GSSG, 50 mL two times a week from 8 weeks after sowing
# Procedure: Sweet corn was sown and cultivated for […] (7 weeks) after the sowing without supplying a nitrogen source to the sweet corn. Thereafter, the sweet corn was cultivated with 30 kgN/10a of a nitrogen source. […] See the cultivation conditions in (c) of FIG. 33.
# In order to examine the amount of production of the plants in more detail, the amounts of biomass of fruits, ground parts, and portions other than the fruits were measured, and harvest index was calculated.
# [12] = tested on: Arabidopsis GA synthesis mutants ga20ox1; test: Effect of oxidized glutathione on gibberellin synthesis mutant; type: in vivo; settings: GSSG (1 mM) from sowing
# Text: In the drawing, “Col” indicates a wild-type Columbia, and “ga20ox1” indicates a mutant in which T-DNA is inserted into a GA20 oxidase gene that codes an enzyme of a GA biosynthesis. “ga20ox1-1” and “ga20ox1-2” are independent mutants in which T-DNA are inserted into different portions.
# Arabidopsis [13] = test: Influence of oxidized glutathione on growth of Arabidopsis; type: in vivo; settings: in vivo
# Procedure: Specifically, the plants were cultivated with two or three plants in one pod of approximately 65 in width, 65 in depth, and 50 in height, and an appropriate amount of a treatment solution was supplied. The effect of the treatment was evaluated with respect to the number of rosette leaves, the speed of a growing flower stalk, the number of flowers, and the number of seeds.
# [14] = soil immersed in 0-5 mM GSSG solutions
substance,measurement,setting,value
oxidized glutathione [GSSG],growth of new floral buds vs not treated,[1],significant promotion of growth of new floral buds
same,seed weight per one pod vs not treated,Arabidopsis [2],significantly increased the seed weight
same,growth of roots vs plants not treated with GSSG,eustoma,significant growth of roots
same,difference from Arabidopsis cultivated with water (0 mM),Arabidopsis [3]; 0.01 mM GSSG,almost no difference
same,concentration at which making a leaf rounder and lengthening the life of a plant were clearly observed,Arabidopsis [3]; [14],0.2 to 2 mM
same,concentration at which making a stem thicker was observed,Arabidopsis [3]; [14],1 to 2 mM
same,number of runners per one stock,[4],several ten runners per one stock
same,effects of increasing seed weight and harvest index compared with ammonium nitrate,[5],greatly larger than the maximum effects yielded by fertilization with nitrogen resulting from ammonium nitrate
same,concentration of GSSG at which the effect on harvest index was saturated,[5]; 0 mM to 5 mM,approximately 2 mM
same,seed weight as function of GSSG concentration,[5]; 0 mM to 5 mM,"increased as concentration of GSSG increased, and the effect was not saturated at the tested concentration"
same,harvest index vs not treated,Sweet corn [6],significantly increased
same,"ability to increase harvest index and crop yields, oxidized vs reduced glutathione",[7],higher ability to increase the harvest index and to significantly increase crop yields than reduced glutathione
same,growth of sprout vs not treated,[8],promoted growth of sprout
same,amount of biomass vs normal nitrogen management zone,[9],higher
same,harvest index vs normal nitrogen management zone,[9],higher
same,seed weight vs normal nitrogen management zone,[9],higher
same,growth of sprout vs not treated,[10],promoted growth of sprout
same,amount of fruits vs not treated,Sweet corn [11],larger amount of fruits
same,"amounts of biomass of fruits, ground parts, portions other than the fruits, and harvest index vs not treated",Sweet corn [11],"larger amounts of biomass of fruits, ground parts, and portions other than the fruits and harvest index"
same,seed weight,[12],significantly increased
same,number of flowers (sheaths),[12]; 8 weeks after the sowing,also increased
same,number of lateral shoots vs water,[12]; 8 weeks after the sowing,significantly increased
same,effective number of seeds per plant relative to plants cultivated with only water or 5 mM H2O2,Arabidopsis [13],approximately three or four times as large
same,growth of leaves (size and shape),Arabidopsis [13],grew larger and rounder
same,number of flowers and area of leaves,Arabidopsis [13],greatly larger
same,"plant length, stem and leaves",Arabidopsis [13],"shorter plant length, a thicker stem, and larger leaves"
same,state of plant (life of plant),Arabidopsis [13],showed much amount of green leaves
